Patent publication US5646159A (priority 1994, dated 1997)
Counter-ions that a name gives are not always drawn.

Experiments:
L-1210 leukemia = experiment: L-1210 Life Prolongation Assay; format: in vivo, mice
Excerpt: L-1210 Life Prolongation Assay^a
^a Intraperitoneal transplants.
^b Q04DX02 = ip injection on days 1 and 5.
Q04HX02 = iv drug dosing on hours 1 and 5.
^c % TC = (median survival time of treated/control animals) ×
^d log of initial tumor cell population minus log of tumor cell
population at the end of treatment. […]

[1] = Toxicity by weight loss in test animals (Protocol 4; toxic = weight loss of ≥4.0 grams); toxic dose; format: in vivo, mice
Excerpt: By "non-toxic", as used herein with reference to the ester compounds of the present invention, is meant a compound which is not toxic according to Protocal 4, section 4.301(b)(3) where toxicity is defined as a weight loss of ≥4.0 grams as reported in R. I. Geran, N. H. Greenberg, M. M. MacDonald, A. M. Schumacher and B. J. Abbott, Cancer Chemotherapy Reports, Part 3, Vol. 3, No. 2, September 1972.

leukemia and tumor = conditions: Wall 1969; cited from earlier work
topoisomerase I = molecular target: T1, topoisomerase I (Bos taurus, UniProt F1MN93); experiment: Cleavable complex assay (topoisomerase I inhibition); format: biochemical; conditions: S.E. in own column, read-out: IC50, minimum drug concentration that inhibited the cleavable complex formation by 50%
T1 sequence (F1MN93 1-767): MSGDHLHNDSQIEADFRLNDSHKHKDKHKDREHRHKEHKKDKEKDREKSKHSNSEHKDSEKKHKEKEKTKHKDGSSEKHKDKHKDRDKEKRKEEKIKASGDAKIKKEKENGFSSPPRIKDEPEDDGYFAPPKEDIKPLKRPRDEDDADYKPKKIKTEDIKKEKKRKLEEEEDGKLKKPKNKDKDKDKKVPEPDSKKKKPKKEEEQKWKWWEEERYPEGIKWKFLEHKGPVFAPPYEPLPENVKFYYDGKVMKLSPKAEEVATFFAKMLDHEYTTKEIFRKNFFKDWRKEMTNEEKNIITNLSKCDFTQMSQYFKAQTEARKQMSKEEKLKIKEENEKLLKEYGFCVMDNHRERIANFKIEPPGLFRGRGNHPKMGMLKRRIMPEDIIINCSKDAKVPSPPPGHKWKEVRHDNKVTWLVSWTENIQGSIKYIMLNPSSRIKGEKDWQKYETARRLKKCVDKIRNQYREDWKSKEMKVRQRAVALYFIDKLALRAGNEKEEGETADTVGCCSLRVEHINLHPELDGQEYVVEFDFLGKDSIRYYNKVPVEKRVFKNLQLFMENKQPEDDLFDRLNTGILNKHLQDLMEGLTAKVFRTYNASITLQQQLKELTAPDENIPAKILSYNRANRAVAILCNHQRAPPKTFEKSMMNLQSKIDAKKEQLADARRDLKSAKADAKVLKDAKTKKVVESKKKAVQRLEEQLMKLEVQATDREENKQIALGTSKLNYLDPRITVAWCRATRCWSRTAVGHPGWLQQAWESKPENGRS
Excerpt: This relaxation is brought about by breakage of one of the DNA strands in the formation of a covalent topoisomerase I-DNA complex.

P388 leukemia = conditions: Wall 1983; cited from earlier work
[2] = physiological pH, 7.2; Burke et al. 1993; cited from earlier work
[3] = background statement; cited from earlier work
[4] = at highest active dose, ip, Q04DX02 (days 1 and 5)
[5] = ip, Q04DX02 (ip injection on days 1 and 5), intraperitoneal transplants
[6] = at highest active dose, iv, Q04HX02 (hours 1 and 5)
[7] = iv, Q04HX02 (iv drug dosing on hours 1 and 5), intraperitoneal transplants

CCC1(O)C(=O)OCc2c1cc1n(c2=O)Cc2cc3cc4c(cc3nc2-1)OCO4 (racemic) [10,11-(methylenedioxy)-(20RS)-CPT, 10,11-methylenedioxy-20(RS)-camptothecin, reference compound]
% T/C = (median survival time of treated/control animals) × 100 (L-1210 leukemia; [4]): 325% | KE, log of initial tumor cell population minus log of tumor cell population at the end of treatment (L-1210 leukemia; ip, Q04DX02 (days 1 and 5)): 5.97 | active dose range (L-1210 leukemia; ip, Q04DX02 (days 1 and 5)): 2 to 4 mg/kg | cures (L-1210 leukemia; ip, Q04DX02 (days 1 and 5)): 2/6 | highest active dose (L-1210 leukemia; [5]): 2 mg/kg | toxic dose ([1]; ip, Q04DX02 (days 1 and 5)): 8.0 mg/kg

CCC1(OC(C)=O)C(=O)OCc2c1cc1n(c2=O)Cc2cc3ccccc3nc2-1 (stereo not drawn) [CPT-20α-acetate]
antileukemia and antitumor activity (leukemia and tumor): inactive

CCC1(OC(=O)CN)C(=O)OCc2c1cc1n(c2=O)Cc2cc3c(N)cccc3nc2-1 (racemic) [9-amino-20-glycinyl-(20RS)-CPT.HCl, 9-amino-20-O-glycinyl-(20RS)-CPT·HCl]
% T/C = (median survival time of treated/control animals) × 100 (L-1210 leukemia; [4]): 132% | % T/C = (median survival time of treated/control animals) × 100 (L-1210 leukemia; [6]): 168% | highest active dose (L-1210 leukemia; mouse, in vivo): 5 mg/kg | KE, log of initial tumor cell population minus log of tumor cell population at the end of treatment (L-1210 leukemia; mouse, in vivo, ip): -1.00 | active dose range (L-1210 leukemia; mouse, in vivo, ip): 10 mg/kg | cures (L-1210 leukemia; mouse, in vivo, ip): 0 | highest active dose (L-1210 leukemia; mouse, in vivo, ip): 10 mg/kg | KE, log of initial tumor cell population minus log of tumor cell population at the end of treatment (L-1210 leukemia; mouse, in vivo, iv): 1.67 | active dose range (L-1210 leukemia; mouse, in vivo, iv): 2.5 to 5.0 mg/kg | cures (L-1210 leukemia; mouse, in vivo, iv): 1/6 | toxic dose (not toxic at dose) ([1]; ip, Q04DX02 (days 1 and 5)): NT^e at 10 | toxic dose (not toxic at dose) ([1]; iv, Q04HX02 (hours 1 and 5)): NT at 5

CCC1(OC(=O)CN)C(=O)OCc2c1cc1n(c2=O)Cc2cc3cc(N)ccc3nc2-1 (racemic) [10-amino-20-glycinyl-(20RS)-CPT.HCl, 10-amino-20-O-glycinyl-(20RS)-CPT·HCl]
% T/C = (median survival time of treated/control animals) × 100 (L-1210 leukemia; [6]): 225% | KE, log of initial tumor cell population minus log of tumor cell population at the end of treatment (L-1210 leukemia; iv, Q04HX02 (hours 1 and 5)): > 5.97 | active dose range (L-1210 leukemia; iv, Q04HX02 (hours 1 and 5)): 1.25 to 20 mg/kg | cures (L-1210 leukemia; iv, Q04HX02 (hours 1 and 5)): 0 | highest active dose (L-1210 leukemia; [7]): 20 mg/kg | toxic dose (not toxic at dose) ([1]; iv, Q04HX02 (hours 1 and 5)): NT at 20

CCC1(OC(=O)CN)C(=O)OCc2c1cc1n(c2=O)Cc2cc3cc4c(cc3nc2-1)OCO4 (racemic) [10,11-MDO-20-O-glycinyl-(20RS)-CPT·HCl]
% T/C = (median survival time of treated/control animals) × 100 (L-1210 leukemia; iv): 236% | KE, log of initial tumor cell population minus log of tumor cell population at the end of treatment (L-1210 leukemia; iv, Q04HX02 (hours 1 and 5)): 5.97 | active dose range (L-1210 leukemia; iv, Q04HX02 (hours 1 and 5)): 1.25 to 20 mg/kg | cures (L-1210 leukemia; iv, Q04HX02 (hours 1 and 5)): 3/6 | highest active dose (L-1210 leukemia; [7]): 10 mg/kg | IC50 (topoisomerase I): 430 nM | toxicity in words ([1]; administered at 20 mg/kg): non-toxic | greater amount of the ester that can be administered than the parent compound ([1]; ester vs parent 10,11-methylenedioxy-20(RS)-camptothecin): 10 fold | toxic dose (not toxic at dose) ([1]; iv, Q04HX02 (hours 1 and 5)): NT at 20

CC[C@@]1(O)C(=O)OCc2c1cc1n(c2=O)Cc2cc3ccccc3nc2-1 [camptothecin, Camptothecin]
activity in the P388 leukemia assay (P388 leukemia): High activity | lactone ring opening [2]: opens to a physiologically inactive open form | water solubility [3]: water insoluble

CCC1(O)C(=O)OCc2c1cc1n(c2=O)Cc2cc3cc(N)ccc3nc2-1 (racemic) [10-amino-(20RS)-CPT, reference compound]
% T/C = (median survival time of treated/control animals) × 100 (L-1210 leukemia; ip): 365% | KE, log of initial tumor cell population minus log of tumor cell population at the end of treatment (L-1210 leukemia; ip, Q04DX02 (days 1 and 5)): 5.97 | active dose range (L-1210 leukemia; ip, Q04DX02 (days 1 and 5)): 1.35 to 3.74 mg/kg | cures (L-1210 leukemia; ip, Q04DX02 (days 1 and 5)): 3/6 | highest active dose (L-1210 leukemia; [5]): 3.75 mg/kg | toxic dose ([1]; ip, Q04DX02 (days 1 and 5)): 6.25 mg/kg

CCC1C(=O)OCc2c1cc1n(c2=O)Cc2cc3ccccc3nc2-1 (centres unmarked) [20-desoxy-CPT]
antileukemia and antitumor activity (leukemia and tumor): inactive

CC[C@@]1(O)C(=O)OCc2c1cc1n(c2=O)Cc2cc3c(N)cccc3nc2-1 [9-amino-(20S)-CPT, reference compound]
KE, log of initial tumor cell population minus log of tumor cell population at the end of treatment (L-1210 leukemia; ip, Q04DX02 (days 1 and 5)): 4.8 | active dose range (L-1210 leukemia; ip, Q04DX02 (days 1 and 5)): 5.3 to 12 mg/kg | cures (L-1210 leukemia; ip, Q04DX02 (days 1 and 5)): 1/6 | highest active dose (L-1210 leukemia; [5]): 12 mg/kg | % T/C = (median survival time of treated/control animals) × 100 (L-1210 leukemia; mouse, in vivo, ip): 250% | toxic dose ([1]; ip, Q04DX02 (days 1 and 5)): 10 mg/kg
